Data reported in US20240374797A1, “SYSTEM AND METHOD FOR EXTRACORPOREAL BLOOD TREATMENT” (Gambro Lundia AB, priority 2020, published 2024).

Columns and labels:
Type in all cases: cell-based, human
A172 (glioblastoma) = experiment: Study 2: CellTiter-Glo cell viability, DMEM without sodium pyruvate; settings: increase in BOHB concentration (0, 4, 12 mM), 3 d, FIG. 7
Method: (§1) Cell lines established from human colon carcinoma (HCT15, NCI-H508 and COLO205), renal cell carcinoma (769-P, 786-O and RCC4) and glioblastoma (LN-18, A-172 and U-118 MG) were selected for the analysis. All cell lines were obtained from American Type Culture Collection (ATCC, LGC standards, UK) except for RCC4 and HCT15 that was purchased from Sigma-Aldrich (Merck, Germany). In addition, primary human renal cell carcinoma (RCC) cells isolated from patient nephrectomies were included in the study. […]
(§2) Optimal seeding density was determined for each cell line in 96 well plates according to the “Protocol for optimizing cell seeding densities to ensure Log-phase growth”. […] Cover the plate. • Incubate the plate overnight at 37° C., 5% CO2. • Add 50 μL of fresh media to the plate wells to achieve a final volume of 200 μL and incubate for 72 h at 37° C., 5% CO2. • Measure viability using Cell Titer Glo assay according to manufacturer's protocol. • Plot log cell number against luminescence intensity to identify the concentration of cells at which log growth is achieved.
(§3) CellTiter-Glo Luminescent cell viability assay (Promega) was used as a readout of viability.
(§4) For each cell line, optimal number of cells as determined above were seeded into 96-well plates on day 0. […]

[1] = system: RCC4 (renal cell carcinoma); experiment: as above; settings: increase in BOHB concentration (0, 4, 12 mM), 3 d, FIG. 7
Method: as §1, §2, §3, §4

[2] = system: RCC4 renal carcinoma cell line; experiment: Example 2: CellTiter-Glo readout of cell numbers in Medium A-C; settings: high levels of BOHB or combination of BOHB and Acac, FIG. 16
Method: To study the effect of a nutrient restricted ketogenic environment on cancer cell growth in vitro, three different cell culture media were formulated. Medium A was full RPMI1640 medium that the cell lines routinely are cultured in. Medium B was used as an approximation of the conditions found in normal human serum. The levels of glucose, glutamine, serine, glycine and arginine were adjusted to match normal physiological levels found in human serum. These nutrients were selected based on their reported use as energy source and effects on cancer cell metabolic state. Medium C was used to emulate the ketogenic nutrient restricted Cancer Dialysis condition. […]
All cell lines were purchased from ATCC (ATCC, LGC standards) except for RCC4 that was from Sigma-Aldrich (Merck). […] Optimal seeding density was determined for each cell line in 96-well plates cultured for 3 days in standard cell culture medium. […]
In Medium B, to mimic physiological conditions, the levels of glutamine, serine, glycine, arginine and glucose were set to the median of measured levels in human serum, based on data from the Mayo Clinic Laboratories (https://www.mayocliniclabs.com/test-catalog/Clinical+and+Interpretive/9265). […]
CellTiter-Glo Luminescent cell viability assay (Promega) was used as a readout of cell numbers according to the manufacturers' instructions. […]

glioma cell line U118MG = experiment: Example 2: CellTiter-Glo readout of cell numbers, ketones added to Medium A-C; settings: for growth, repeat experiments 2-6 (inconsistent results): ketone added separately (16 mM BOHB or 8 mM Acac), FIG. 15; for number of cells compared to 8 mM LiCl control: 8 mM Acac
Method: (§5) To study the effect of a nutrient restricted ketogenic environment on cancer cell growth in vitro, three different cell culture media were formulated. Medium A was full RPMI1640 medium that the cell lines routinely are cultured in. Medium B was used as an approximation of the conditions found in normal human serum. The levels of glucose, glutamine, serine, glycine and arginine were adjusted to match normal physiological levels found in human serum. These nutrients were selected based on their reported use as energy source and effects on cancer cell metabolic state. Medium C was used to emulate the ketogenic nutrient restricted Cancer Dialysis condition. Here, the levels of the selected nutrients were reduced to half of the physiological levels in Medium B, and the ketone body BOHB was added.
(§6) Human cancer cell lines are routinely established and cultured at atmospheric oxygen levels (21% O2), yet, the physiological oxygen levels in tissue is considerably lower and varies from 3-13% [Ward, Biochim Biophys Acta 2008; 1777:1-14. Within the tumor microenvironment, the fast growth rate of cancer cells combined with an often malformed and defective vasculature often results in hypoxic regions with oxygen levels ranging from 0-5%. Given the effects of oxygen levels on energy metabolism [Xie et al., J Biol Chem 2017; 292:16825-16832], and to further mimic the physiological conditions in vivo, the growth of the cancer cell lines in Medium A, B and C was studied at both ambient, 21% O2, and at the more physiological 5% O2.
(§7) Cells were maintained in RPMI-1640 medium (31870-025 GIBCO) with the addition of 10% serum, 200 mM L-glutamine and 1% penicillin-streptomycin (PEST) in humidified chambers at 37° C. and 5% CO2. For hypoxic conditions (5% O2), cells were maintained in a Galaxy 14 S CO2 incubator (Eppendorf) where N2 was used to adjust the O2 level to 5%.
(§8) Medium A: RPMI1640 (31870-025, GIBCO) with the addition of 1% PEST, 200 mM L-glutamine and 10% dialyzed serum. Dialyzed serum was used to reduce the amounts of small molecules such as amino acids.
(§9) Medium B and C were prepared from RPMI1640 modified medium powder without L-glutamine, glucose and amino acids (R9010-01, US Biological Life Sciences). For 1 L medium, 7.4 g powder was dissolved in 900 ml sterile water without heating and 2 g sodium bicarbonate was added. Amino acids listed in Table 5 were added to the same concentration as in full RPMI1640 medium (Table 5). After all additions, the medium was sterilized by filtering through 0.22 um membranes and divided into two bottles.
(§10) In Medium B, to mimic physiological conditions, the levels of glutamine, serine, glycine, arginine and glucose were set to the median of measured levels in human serum, based on data from the Mayo Clinic Laboratories (https://www.mayocliniclabs.com/test-catalog/Clinical+and+Interpretive/9265).
(§11) To model Cancer Dialysis conditions in Medium C, the levels of these nutrients were reduced to 50% of the physiological levels. As for Medium A, 1% PEST and 10% dialyzed serum were added to Medium B and C. Sodium pyruvate, that is a common addition in cell culture medium, was not present in any of the used media.
(§12) Stock solutions of DL-β-Hydroxybutyric acid sodium salt (H6501, Sigma Aldrich) and Lithium Acetoacetate (A8509, Sigma Aldrich) were prepared in water, sterile filtered, aliquoted and stored at −20° C. Lithium Chloride (L7026, Sigma Aldrich) was used as a control for the addition of Lithium in the Li-Acac.
(§13) CellTiter-Glo Luminescent cell viability assay (Promega) was used as a readout of cell numbers according to the manufacturers' instructions. In experiments shown in FIG. 12-13, double plates were seeded and treated. One set of plates was used for collection of medium for lactate measurement (see below) and the CellTiterGlo-assay. The other set of plates was frozen at −80° C. at the end of the experiment. […]

glioma cell line A172 = experiment: as above; settings: for growth, repeat experiments 2-6 (inconsistent results): ketone added separately (16 mM BOHB or 8 mM Acac), FIG. 14; for number of cells compared to 8 mM LiCl control: 8 mM Acac
Method: as §5, §6, §7, §8, §9, §10, §11, §12, §13

[3] = Medium C, 16 mM BOHB, at both 21 and 5% O2
[4] = Medium A, both normoxia and hypoxia

Row | SMILES | proliferation of cells (A172 (glioblastoma)) | proliferation of cells [1] | increased sensitivity to ketones in nutrient restricted Medium C [2] | growth inhibitory effect (glioma cell line U118MG; Medium A, 16 mM BOHB alone, both normoxia and hypoxia, FIG. 13) | number of cells, % compared to C-medium without BOHB (glioma cell line U118MG; [3]) | growth, repeat experiments 2-6 (inconsistent results) (glioma cell line U118MG; Medium C) | growth inhibitory effect (glioma cell line A172; Medium A, 16 mM BOHB alone, both normoxia and hypoxia, FIG. 12) | number of cells, % of the amount in Medium B without BOHB (glioma cell line A172; Medium B, hypoxic (5% O2), BOHB added (16 mM)) | number of cells, % compared to C-medium without BOHB (glioma cell line A172; [3]) | growth, repeat experiments 2-6 (inconsistent results) (glioma cell line A172; Medium C) | number of cells compared to 8 mM LiCl control (glioma cell line U118MG; [4]) | number of cells compared to 8 mM LiCl control (glioma cell line U118MG; Medium B, 5% O2) | number of cells compared to 8 mM LiCl control (glioma cell line U118MG; Medium B, 21% O2) | amounts of cells compared to 8 mM LiCl control (glioma cell line U118MG; Medium C, 8 mM Acac alone) | number of cells compared to 8 mM LiCl control (glioma cell line A172; [4]) | number of cells compared to 8 mM LiCl control (glioma cell line A172; Medium B, 5% O2) | number of cells compared to 8 mM LiCl control (glioma cell line A172; Medium B, 21% O2) | amounts of cells compared to 8 mM LiCl control (glioma cell line A172; Medium C, 8 mM Acac alone)
1 | CC(O)CC(=O)[O-].[Na+] (racemic) [BOHB, DL-β-Hydroxybutyric acid sodium salt] | suppresses the proliferation of cells | suppresses the proliferation of cells | not found | no growth inhibitory effect | around 30% | trend of reduced growth | no growth inhibitory effect | approximately 70% | around 30% | trend of reduced growth | – | – | – | – | – | – | – | –
2 | CC(=O)CC(=O)[O-].[Li+] [Acac, Lithium Acetoacetate] | – | – | – | – | – | trend of reduced growth | – | – | – | trend of reduced growth | did not reduce the number of cells further | only at 21% O2 | reduced the number of cells significantly | did not significantly reduce the amounts of cells | did not reduce the number of cells further | only at 21% O2 | reduced the number of cells significantly | did not significantly reduce the amounts of cells
